Reference: ChEMBL document CHEMBL1125787, “Synthesis and anti-HIV-1 activity of 4,5,6,7-tetrahydro-5-methylimidazo[4,5,1-jk][1,4]benzodiazepin-2(1H)-on e (TIBO) derivatives. 2” (J Med Chem, 1991)

The compounds below were run on MT4 (assay: Ability to block replication of HIV-1 virus in MT-4 cells). Conditions: Homo sapiens.
`CC(C)=CCN1Cc2cccc3nc(N(C)C)n(c23)CC1C` (stereo unspecified) was tested, and the IC50 was > 250 µM.
With `CCCN1Cc2cccc3[nH]c(Cl)c(c23)CC1C` (stereo unspecified) the IC50 was > 50 µM.
In the case of `CCC(=CCN1Cc2cc(Cl)cc3nc(S)n(c23)CC1C)CC` (stereo unspecified), the IC50 is reported as 0.012 µM.
In the case of `CC(C)=CCN1Cc2cccc3nc(Sc4ccccc4)n(c23)CC1C` (stereo unspecified), the IC50 is reported as > 50 µM.
`CC1CN2c3c(cc(Cl)cc3NS2(=O)=O)CN1CC1CC1` (stereo unspecified) was tested, and the IC50 was > 10 µM.
`CCCN1Cc2cccc3[nH]c(=O)c(=O)n(c23)CC1C` (stereo unspecified) was tested, and the IC50 was > 250 µM.
`CC1CN2C(=O)CNc3cc(Cl)cc(c32)CN1CC1CC1` (stereo unspecified) was tested, and the IC50 was > 10 µM.
With `C=C(C)CN1Cc2cccc3ncn(c23)CC1C` (stereo unspecified) the IC50 was > 2 µM.
With `CC1Cn2c(=O)oc3cccc(c32)CN1CC1CCC1` (stereo unspecified) the IC50 was > 2 µM.
In the case of `CNc1nc2cccc3c2n1CC(C)N(CC=C(C)C)C3` (stereo unspecified), the IC50 is reported as > 250 µM.
In the case of `C=CCn1c(=O)n2c3c(cccc31)CN(CCC)C(C)C2` (stereo unspecified), the IC50 is reported as > 50 µM.
In the case of `CCCN1Cc2cccc3c2n(c(=O)n3C)CC1C` (stereo unspecified), the IC50 is reported as > 250 µM.
For `C/N=C(/S)N1CC(C)N(CC2CC2)Cc2cc(Cl)ccc21` (stereo unspecified), the IC50 was > 10 µM.
For `CCCN1Cc2cccc3[nH]cc(c23)CC1C` (stereo unspecified), the IC50 was > 250 µM.
With `C=C(C)CN1Cc2cccc3c2C(CC1C)C(S)=N3` (stereo unspecified) the IC50 was > 10 µM.
`CC1Cn2c(O)nc3cc(Cl)cc(c32)CN1CC1CCC1` (stereo unspecified) was tested, and the IC50 was 0.38 µM.
For `CCCN1Cc2cccc3c2n(c(=O)n3CC#N)CC1C` (stereo unspecified), the IC50 was > 250 µM.
For `CC1Cn2c(S)nc3cc(Cl)cc(c32)CN1CCC1CC1` (stereo unspecified), the IC50 was 0.42 µM.
`CC(C)=CCN1Cc2cc(Cl)cc3[nH]c(=O)n(c23)C[C@H]1C` showed an IC50 of 4.2 µM.
In the case of `CC(C)=CCN1Cc2cc(Cl)cc3[nH]c(=S)n(c23)C[C@@H]1C`, the IC50 is reported as 0.039 µM.
With `CCCN1Cc2cccc3c2N(CC1C)C(=O)C3` (stereo unspecified) the IC50 was > 250 µM.
In the case of `CC(C)=CCN1Cc2cc(Cl)cc3nc([SeH])n(c23)CC1C` (stereo unspecified), the IC50 is reported as 0.018 µM.
For `COC(=O)Nc1nc2cc(Cl)cc3c2n1C[C@@H](C)N(CC=C(C)C)C3`, the IC50 was > 10 µM.
For `CCC(=CCN1Cc2cc(Cl)cc3nc(O)n(c23)CC1C)CC` (stereo unspecified), the IC50 was 0.029 µM.
`C=CCN1Cc2cccc3c2C(CC1C)C(S)=N3` (stereo unspecified) was tested, and the IC50 was > 250 µM.
With `C=C(C)CN1Cc2cccc3c2C(O)(CC1C)C(=O)N3` (stereo unspecified) the IC50 was > 250 µM.
For `COc1nc2cccc3c2n1CC(C)N(CC=C(C)C)C3` (stereo unspecified), the IC50 was > 250 µM.
Work on `CC1Cn2c(O)nc3cc(Cl)cc(c32)CN1CCC1CC1` (stereo unspecified) yielded an IC50 of 2.2 µM.
With `CCCN1Cc2cccc3c2n(c(=O)n3C(C)C)CC1C` (stereo unspecified) the IC50 was > 250 µM.
In the case of `CC1Cn2c(S)nc3cc(Cl)cc(c32)CN1CC1CCC1` (stereo unspecified), the IC50 is reported as 0.026 µM.
In the case of `CC1Cn2c(N=C(N)N)nc3cc(Cl)cc(c32)CN1CC1CC1` (stereo unspecified), the IC50 is reported as > 50 µM.
With `CC(C)=CCN1Cc2cc(Cl)cc3nc(NC#N)n(c23)CC1C` (stereo unspecified) the IC50 was > 250 µM.
In the case of `CC1Cn2c(O)nc3cccc(c32)CN1CC1CC1` (stereo unspecified), the IC50 is reported as 10 µM.
`CC(C)=CCN1Cc2cc(Cl)cc3nc(S)n(c23)C[C@H]1C` gave an IC50 of 0.39 µM.
`C=C(C)CN1Cc2cccc3c2C(CC1C)C(=O)N3` (stereo unspecified) was tested, and the IC50 was > 50 µM.
In the case of `CCCN1Cc2cccc3nnn(c23)CC1C` (stereo unspecified), the IC50 is reported as > 10 µM.
With `CC(C)=CCN1Cc2cccc3[nH]c(=S)n(c23)C[C@@H]1C` the IC50 was 0.097 µM.
In the case of `C=C(C)CN1Cc2cccc3[nH]c(=O)n(c23)CC1C` (stereo unspecified), the IC50 is reported as 15.2 µM.
Compound `C=C(C)CN1Cc2cccc3nc(S)n(c23)CC1C` (stereo unspecified) has an IC50 of 0.026 µM.
In the case of `CCCN1Cc2cccc3[nH]c(=O)n(c23)CC1C` (stereo unspecified), the IC50 is reported as 60 µM.
`CC(C)=CCN1Cc2cccc3nc(O)n(c23)CC1C` (stereo unspecified) showed an IC50 of 9.8 µM.
For `CC1Cn2c(S)nc3cccc(c32)CN1CC1CC1` (stereo unspecified), the IC50 was 0.06 µM.
For `CCCN1Cc2cccc3[nH]c(=S)n(c23)CC1C` (stereo unspecified), the IC50 was 1.7 µM.
Compound `CC(C)=CCN1Cc2cc(Cl)cc3[nH]c(=O)n(c23)C[C@@H]1C` has an IC50 of 0.18 µM.
`O=c1[nH]cnc2c1ncn2[C@H]1CC[C@@H](CO)O1` [DIDANOSINE] showed an IC50 of 5.5 µM.
Compound `Cc1cn([C@H]2C[C@H](N=[N+]=[N-])[C@@H](CO)O2)c(=O)[nH]c1=O` [ZIDOVUDINE] has an IC50 of 0.004 µM.
